Laboratory results as given in patent publication EP1326493B1, “AGROCHEMICAL COMPOSITION CONTAINING ACTIVITY-ENHANCING ADJUVANTS” (Syngenta Limited, priority 2000, dated 2002).
Converted amounts (≈) assume the structure as drawn.

What was measured:
[1] = system: Sorgham halepense (SORHA); experiment: Glass-house comparative efficacy test of potassium glyphosate with adjuvants; format: in vivo; details: potassium glyphosate 240 g acid equivalent/ha, 21 days after treatment
Procedure: (§1) Potassium glyphosate was applied at 240 g glyphosate acid equivalent/ha to Chenopodium album (CHEAL), Echinochloa crus-galli (ECHCG) and Sorgham halepense (SORHA) plants grown in the glass-house. All treatments were made up in deionised water and applied using a tracksprayer with a 11002 nozzle at a spray application volume of […]. All treatments were replicated 4 times. After spraying the plants were laid out in a glass-house and maintained at a temperature of 24°C by day and 16°C by night. The Agrimul PG2067 and Synperonic PEL62 adjuvants were used in a proportion 0.2% w/v. The adjuvant 2-ethylhexyl amine 8EO was used at both 0.2%w/v and 0.3%w/v. The adjuvant Sodium dodecyl sulphate was used in a proportion of 0.3%w/v. When applied as binary blends all adjuvants were used in a proportion of 0.1%w/v except Sodium dodecyl sulphate which was applied at 0.2%w/v. A visual assessment of % control, where 0=unaffected and 100=complete kill, was carried out 21 days after treatment.

[2] = system: Echinochloa crus-galli (ECHCG); experiment: as above; format: in vivo; details: potassium glyphosate 240 g acid equivalent/ha, 21 days after treatment
Procedure: as §1

[3] = system: Chenopodium album (CHEAL); experiment: as above; format: in vivo; details: potassium glyphosate 240 g acid equivalent/ha, 21 days after treatment
Procedure: as §1

[4] = Dynamic surface tension, maximum bubble pressure method (Lauda MPT-2); format: physicochemical
Procedure: Dynamic surface tension can be measured using the maximum bubble pressure method. Various commercial instruments are available for measuring dynamic surface tension by the maximum bubble pressure method, for example the Lauda MPT-2 maximum bubble pressure instrument. The dynamic surface tension at 40msecs is determined from the maximum pressure in a bubble blown from a capillary inserted into a surfactant solution, for a bubble surface lifetime of 40msecs.
The dynamic surface tension measurements were carried out with a Lauda MPT-2 maximum bubble pressure tensiometer. The dynamic surface tension at 40 msecs was determined from the maximum pressure in a bubble blown from a capillary inserted into a surfactant solution, for a bubble surface lifetime of 40 msecs. The dynamic surface tensions were determined for solutions containing 0.1%, 0.2% or 0.5% by weight of the second adjuvant in deionised water at 20°C. For comparison, the dynamic surface tension of a 0.5% by weight solution of 2-ethylhexyl amine 8EO adjusted to pH4 with dilute hydrochloric acid (to protonate the amine) was also determined at 20°C.

Avena fatua (AVEFA) = experiment: Field efficacy test of potassium glyphosate with adjuvants; format: in vivo; details: potassium glyphosate + 0.2% adjuvant, mean across 100, 200, 400 and 600 g glyphosate acid/ha, 33 days after application
From the text: (§2) Potassium glyphosate, in combination with the adjuvants specified below in Table 3, was applied to Lolium perenne (LOLPE), Avena fatua (AVEFA) and Chenopodium album (CHEAL) drilled as rows in the field, at a spray application volume of […]. Application rates were 100, 200, 400 and 600 g glyphosate acid/ha and each treatment was replicated 3 times. Data (mean of the three replicates and across all rates) is presented for a visual assessment of % control carried out 33 days after application, where 0 = unaffected and 100% = complete kill Table 3.

Lolium perenne (LOLPE) = experiment: as above; format: in vivo; details: potassium glyphosate + 0.2% adjuvant, mean across 100, 200, 400 and 600 g glyphosate acid/ha, 33 days after application
From the text: as §2

[5] = system: Chenopodium album (CHEAL); experiment: as above; format: in vivo; details: potassium glyphosate + 0.2% adjuvant, mean across 100, 200, 400 and 600 g glyphosate acid/ha, 33 days after application
From the text: as §2

Daphnia magna = Daphnia magna immobilisation ecotoxicity test; format: in vivo
Procedure: The following ecotoxicity results were obtained for various alkyl amine alkoxylates using the following test method. First instar Daphnia magna (less than 24 hrs old), obtained from cultures were exposed to a range of concentrations of the test amine ethoxylates in hard blended water (160-180 mg CaCO3 /litre). 10 Daphnia magna were added to each vessel which were then placed at ∼20 degrees C on a 16/8 light/dark day. Organisms were assessed at 24 and 48 hours, the effect observed being immobilisation after gentle agitation. The EC50 values were calculated using a statistical package, the 95% confidence limits are quoted in brackets.
The amine ethoxylates were tested in the presence of potassium glyphosate in order to protonate the amine. […] The remaining adjuvants were tested in the absence of potassium glyphosate. It can be seen that the ecotoxicity of the alkyl amine alkoxylates 3 to 6 falling within the definition of the present invention was very much lower that that for the nearest previously known compounds 1 to 2. It will be appreciated that the higher the EC50 value, the lower the toxicity.

## 2-ethylhexyl amine 8EO [Number 3]
[1]; single adjuvant 0.2%
  visual assessment of % control SORHA: 74%
[1]; single adjuvant 0.3%
  visual assessment of % control SORHA: 75%
[2]; single adjuvant 0.2%
  visual assessment of % control ECHCG: 63%
[2]; single adjuvant 0.3%
  visual assessment of % control ECHCG: 64%
[3]; single adjuvant 0.2%
  visual assessment of % control CHEAL: 59%
[4]; 0.5% by weight solution adjusted to pH4 with dilute hydrochloric acid, 20°C
  Dynamic Surface Tension at 40 msecs: 64 mNm^-1
Avena fatua (AVEFA)
  visual assessment of % control AVEFA: 68%
Lolium perenne (LOLPE)
  visual assessment of % control LOLPE: 47%
[5]
  visual assessment of % control CHEAL: 74%

## CCCCCCCCCCCCOS(=O)(=O)[O-].[Na+] [Number 9, Sodium dodecyl sulphate, reference compound]
[1]; single adjuvant 0.3%
  visual assessment of % control SORHA: 76%
[2]; single adjuvant 0.3%
  visual assessment of % control ECHCG: 78%
[4]; 0.2% by weight in deionised water at 20°C
  Dynamic Surface Tension at 40 msecs: 53 mNm^-1
[4]; 0.5% by weight in deionised water at 20°C
  Dynamic Surface Tension at 40 msecs: 39 mNm^-1

## CCCCCCCCCCCCOS(=O)(=O)O [Number 9]
Daphnia magna; Daphnia magna, 48 hours, immobilisation, tested in the absence of potassium glyphosate, 95% confidence limits in brackets, read-out: Daphnia toxicity EC50
  EC50: 16 µg/mL (≈ 60.1 µM)

## O=C(O)CNCP(=O)([O-])O.[K+] [Potassium glyphosate, reference compound]
[1]; no adjuvant
  visual assessment of % control SORHA: 21%
[2]; no adjuvant
  visual assessment of % control ECHCG: 48%
[3]; no adjuvant
  visual assessment of % control CHEAL: 3%
Daphnia magna; potassium glyphosate itself
  contribution to the daphnia toxicity: does not make a significant contribution
